Test results published in US6613772B1, “Substituted 2-aryl-4-amino-chinazolines, method for the production and use thereof as medicaments” (Aventis Pharma Deutschland GmbH, priority 1997, dated 2003).

How the values were obtained:
[1] = molecular target: T1, soluble guanylate cyclase (sGC) (Bos taurus, UniProt P16068+P19687); experiment: Activation of the soluble guanylate cyclase (cGMP enzyme immunoassay); type: biochemical; conditions: test substance 50 μM; sGC isolated from bovine lung; [cGMP] test substance/[cGMP] control (basal activity, solvent); 37° C., 15 to 20 minutes
T1 construct: The sGC employed had been isolated from bovine lung; from tissue; host or cells: bovine lung
T1 sequence (P19687 1-691): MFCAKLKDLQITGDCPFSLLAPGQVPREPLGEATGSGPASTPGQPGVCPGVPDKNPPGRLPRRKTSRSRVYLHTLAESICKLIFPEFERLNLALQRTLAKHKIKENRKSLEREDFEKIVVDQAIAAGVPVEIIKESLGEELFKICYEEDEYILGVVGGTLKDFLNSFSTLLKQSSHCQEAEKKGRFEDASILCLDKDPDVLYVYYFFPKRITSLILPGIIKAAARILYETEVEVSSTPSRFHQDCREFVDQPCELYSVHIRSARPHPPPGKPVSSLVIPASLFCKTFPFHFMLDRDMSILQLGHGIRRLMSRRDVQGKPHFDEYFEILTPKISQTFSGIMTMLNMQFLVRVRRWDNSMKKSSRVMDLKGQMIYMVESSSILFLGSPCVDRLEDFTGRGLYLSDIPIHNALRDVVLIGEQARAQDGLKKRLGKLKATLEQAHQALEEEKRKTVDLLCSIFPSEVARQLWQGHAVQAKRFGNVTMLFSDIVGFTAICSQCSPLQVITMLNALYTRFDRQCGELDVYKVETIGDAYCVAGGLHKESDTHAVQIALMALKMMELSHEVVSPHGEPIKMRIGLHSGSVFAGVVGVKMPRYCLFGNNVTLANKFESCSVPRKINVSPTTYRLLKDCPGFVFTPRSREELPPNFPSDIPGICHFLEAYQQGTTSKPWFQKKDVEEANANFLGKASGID
T1 sequence (P16068 1-619): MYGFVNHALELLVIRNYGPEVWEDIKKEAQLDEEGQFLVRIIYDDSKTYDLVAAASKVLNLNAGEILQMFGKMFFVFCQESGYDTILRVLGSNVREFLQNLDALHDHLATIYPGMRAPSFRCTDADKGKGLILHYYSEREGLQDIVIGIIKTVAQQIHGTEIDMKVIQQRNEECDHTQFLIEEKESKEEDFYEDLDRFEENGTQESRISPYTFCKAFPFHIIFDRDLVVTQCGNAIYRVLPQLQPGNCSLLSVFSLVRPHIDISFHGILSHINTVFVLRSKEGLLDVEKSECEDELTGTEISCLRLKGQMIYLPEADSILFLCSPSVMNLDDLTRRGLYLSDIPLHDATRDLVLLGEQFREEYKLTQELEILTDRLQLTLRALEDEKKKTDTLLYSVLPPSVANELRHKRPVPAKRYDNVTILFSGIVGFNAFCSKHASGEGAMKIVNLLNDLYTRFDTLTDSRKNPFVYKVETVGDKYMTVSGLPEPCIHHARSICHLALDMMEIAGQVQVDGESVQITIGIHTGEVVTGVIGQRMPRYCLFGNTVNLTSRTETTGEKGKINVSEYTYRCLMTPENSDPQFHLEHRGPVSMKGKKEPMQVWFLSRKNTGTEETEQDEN
Protocol: Activation of the Soluble Guanylate Cyclase
The activation of the soluble guanylate cyclase (sGC), which catalyzes the conversion of guanosine triphosphate (GTP) into cyclic guanosine monophosphate (cGMP) and pyrophosphate, by the compounds according to the invention was quantified with the aid of an enzyme immunoassay (EIA) from Amersham. For this, the test substances were first incubated with sGC in microtiter plates and then the amount of resulting cGMP was determined. The sGC employed had been isolated from bovine lung (see Methods in Enzymology, Volume 195, p. 377). The test solutions (100 μl per well) contained 50 mM triethanolamine (TEA) buffer (pH 7.5), 3 mM MgCl2, 3 mM reduced glutathione (GSH), 0.1 mM GTP, 1 mM 3-isobutyl-1-methylxanthine (IBMX), suitably diluted enzyme solution and the test substance or, in the case of the control experiments, solvent. The test substances were dissolved in dimethyl sulfoxide (DMSO) and the solution was diluted with DMSO/water such that the final concentration of test substance in the test solution was 50 μM. The DMSO concentration in the test solution was 5% (v/v). The reaction was started by addition of the sGC. The reaction mix was incubated at 37° C. for 15 to 20 minutes and then stopped by ice-cooling and addition of the stop reagent (50 mM EDTA, pH 8.0). An aliquot of 50 μl was taken and employed for the determination of the cGMP content using the acetylation protocol of the Amersham cGMP EIA kit. The absorption of the samples was measured at 450 nm (reference wavelength 620 nm) in a microtiter plate reader. The cGMP concentration was determined by means of a calibration curve which was obtained under the same experimental conditions. The activation of the sGC by a test substance is indicated as n-fold stimulation of the basal enzyme activity which was found in the control experiments (with solvent instead of test substance calculated according to the formula
n-fold stimulation=[cGMP]test substance/[cGMP]control).

| SMILES | n-fold Stimulation [1] | melting point |
| --- | --- | --- |
| COc1cc2nc(-c3ccc(C(F)(F)F)cc3)nc(NCc3cccnc3)c2cc1OC [Example 44, 2-(4-Trifluoromethylphenyl)-4-((3-pyridylmethyl)amino)-6,7-dimethoxyquinazoline] | 4 n-fold | 238 °C |
| COc1cc2c(N3CCC(C(N)=O)CC3)nc(-c3ccc(Cl)cc3)nc2c(OC)c1OC [Example 67, 2-(4-Chlorophenyl)-4-(4-aminocarbonylpiperidino)-6,7,8-trimethoxyquinazoline] | 7 n-fold | 215 °C |
| COc1cc2nc(-c3ccc(C)cc3)nc(N3CCN(c4ccccn4)CC3)c2cc1OC [Example 79, 2-(4-Methylphenyl)-4-(4-(2-pyridyl)piperazino)-6,7-dimethoxyquinazoline] | 6 n-fold | 191 °C |
| COc1cc2c(N[C@H]3CC[C@H](O)CC3)nc(-c3ccc(Cl)cc3)nc2c(OC)c1OC [Example 94, 2-(4-Chlorophenyl)-4-(trans-4-hydroxycyclohexylamino)-6,7,8-trimethoxyquinazoline] | 13 n-fold | 199 °C |

Next, values leading:

| n-fold Stimulation [1] | melting point | SMILES |
| --- | --- | --- |
| 6 n-fold | 231 °C | COc1cc2nc(-c3ccc(Cl)cc3)nc(NC3CCCC3)c2cc1OC [Example 92, 2-(4-Chlorophenyl)-4-cyclopentylamino-6,7-dimethoxyquinazoline] |
| 14 n-fold | 261 °C | COc1cc2nc(-c3ccc(Cl)cc3)nc(N[C@H]3CC[C@H](O)CC3)c2cc1OC [Example 93, 2-(4-Chlorophenyl)-4-(trans-4-hydroxycyclohexylamino)-6,7-dimethoxyquinazoline] |
| 16 n-fold | 243 °C | COc1cc2nc(-c3ccc(C)cc3)nc(N[C@H]3CC[C@H](O)CC3)c2cc1OC [Example 96, 2-(4-Methylphenyl)-4-(trans-4-hydroxycyclohexylamino)-6,7-dimethoxyquinazoline] |
| 8 n-fold | 101 °C | COc1cc2nc(-c3ccc(C)cc3)nc(NC3CCCC3)c2cc1OC [Example 98, 2-(4-Methylphenyl)-4-cyclopentylamino-6,7-dimethoxyquinazoline] |
